Among the data in US20250346600A1, “TRICYCLIC DERIVATIVES AND RELATED USES” (MOMA Therapeutics, Inc., priority 2023, published 2025) are AC50 values, retold here.

Test [1] deals with T1, Full length WRN protein (aa 2-1432) (Homo sapiens (Human), UniProt Q14191). Description: WRN ATPase ADP-Glo biochemical assay, Assay Format B (100 μM ATP). Conditions: 0.25 nM WRN, 100 nM C6.18 ssDNA, 60 min preincubation, read-out: ATPase ADPGlo AC50 (uM)- Assay Format B.
Another test has as its system HCT116 cells. In words: HCT116 (MSI) 7 day viability, CellTiter Glo. The following applies: 7 days, read-out: HCT116 (MSI) Viability 7 Day Abs AC50. The test is classed as cell-based. The method in brief: (§1)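 10 mM DMSO stocks serially diluted 3-fold, 10 steps; cells added (HCT116 50/well, HT29 500/well); 7 d, 37 °C, 5% CO2; CellTiter Glo 20 min RT; luminescence.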
The subject of the next test is HT29 cells. In words: HT29 (MSS) 7 day viability, CellTiter Glo. The test is classed as cell-based. Conditions: 7 days, read-out: HT29 (MSS) Viability 7 Day CTGAbs AC50. The method in brief: as §1
Test [2] has as its target T1, Full length WRN protein (aa 2-1432). Description: WRN ATPase ADP-Glo biochemical assay, Assay Format A (10 μM ATP). Conditions: 0.25 nM WRN, 100 nM C6.18 ssDNA, 30 min preincubation, read-out: ATPase ADPGlo AC50 (uM)- Assay Format A. The method in brief: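 ADP-Glo luminescence measured hydrolysis of ATP by purified, baculovirus-expressed N-terminally tagged full-length WRN. Enzyme (0.5 nM) was preincubated 30 min with compound, then 200 nM ssDNA C6.18 plus 20 μM ATP were added (pre-mix levels) for 30 min at RT. IC50s come from four-parameter fits, geometric mean of at least two trials.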

Read-outs that look alike come from different tables or passages of the source.

T1 sequence (Q14191 2-1432): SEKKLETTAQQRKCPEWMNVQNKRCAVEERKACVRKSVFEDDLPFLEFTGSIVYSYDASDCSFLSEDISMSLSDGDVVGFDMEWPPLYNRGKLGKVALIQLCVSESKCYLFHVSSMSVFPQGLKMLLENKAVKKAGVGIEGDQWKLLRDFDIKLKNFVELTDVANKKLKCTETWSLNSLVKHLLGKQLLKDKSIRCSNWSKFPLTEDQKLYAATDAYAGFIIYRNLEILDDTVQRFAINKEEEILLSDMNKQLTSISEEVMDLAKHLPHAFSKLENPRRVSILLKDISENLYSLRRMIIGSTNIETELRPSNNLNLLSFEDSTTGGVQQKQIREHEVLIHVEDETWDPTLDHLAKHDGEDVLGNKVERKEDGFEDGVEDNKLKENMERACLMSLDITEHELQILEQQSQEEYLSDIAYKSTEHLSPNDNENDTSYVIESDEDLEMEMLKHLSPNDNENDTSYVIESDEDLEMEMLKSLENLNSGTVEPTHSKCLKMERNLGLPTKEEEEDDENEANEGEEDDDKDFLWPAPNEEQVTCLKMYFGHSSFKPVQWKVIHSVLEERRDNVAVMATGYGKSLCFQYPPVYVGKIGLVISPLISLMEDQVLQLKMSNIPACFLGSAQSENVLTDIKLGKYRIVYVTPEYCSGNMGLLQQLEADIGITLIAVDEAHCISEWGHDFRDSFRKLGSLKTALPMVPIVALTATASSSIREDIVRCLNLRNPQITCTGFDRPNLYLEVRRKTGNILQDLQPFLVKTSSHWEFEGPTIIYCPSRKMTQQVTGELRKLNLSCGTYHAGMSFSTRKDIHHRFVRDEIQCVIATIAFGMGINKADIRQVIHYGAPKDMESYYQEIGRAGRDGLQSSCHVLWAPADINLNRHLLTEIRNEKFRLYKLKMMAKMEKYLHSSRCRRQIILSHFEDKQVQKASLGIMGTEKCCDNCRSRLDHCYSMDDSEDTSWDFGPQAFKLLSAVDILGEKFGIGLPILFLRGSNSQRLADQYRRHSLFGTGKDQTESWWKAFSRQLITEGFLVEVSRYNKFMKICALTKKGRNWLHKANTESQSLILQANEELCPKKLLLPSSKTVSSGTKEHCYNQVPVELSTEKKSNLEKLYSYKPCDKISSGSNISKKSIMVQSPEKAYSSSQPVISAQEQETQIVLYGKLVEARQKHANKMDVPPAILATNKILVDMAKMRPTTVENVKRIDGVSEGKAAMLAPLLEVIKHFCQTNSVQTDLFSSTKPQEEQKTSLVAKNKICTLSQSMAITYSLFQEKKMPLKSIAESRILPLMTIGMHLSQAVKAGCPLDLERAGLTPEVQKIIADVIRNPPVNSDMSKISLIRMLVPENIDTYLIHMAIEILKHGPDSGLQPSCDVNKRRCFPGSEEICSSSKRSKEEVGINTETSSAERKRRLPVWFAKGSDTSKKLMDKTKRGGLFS

Consider `C=CC(=O)N1CC(OC2CC(C#N)C2)c2nn(-c3ccc(C4CCC4)cc3)c3c2C(C1)N(C(=O)c1cnc(C(F)(F)F)cc1N)CC3` (stereo not shown) [Compound 198, 3-((7-acryloyl-5-(4-amino-6-(trifluoromethyl)nicotinoyl)-2-(4-cyclobutylphenyl)-3,4,5,5a,6,7,8,9-octahydro-2H-1,2,5,7-tetraazabenzo[cd]azulen-9-yl)oxy)cyclobutane-1-carbonitrile], for which the AC50 in test [1] was 0.005 to 0.015 µM; in the test with HCT116 cells (Homo sapiens, HCT-116, 168 h) it was 0.001 to 0.1 µM; in the test with HT29 cells (Homo sapiens, HT-29, 168 h) it was over 3 µM; in test [2] it was under 0.0015 µM.
For `C=CC(=O)N1CCc2nn(-c3ccc(C4CCC4)c(F)c3O)c3c2C(C1)N(C(=O)c1cnc(C(F)(F)F)c(O)c1)CC3` (stereo not shown) [Compound 141, 1-(2-(4-cyclobutyl-3-fluoro-2-hydroxyphenyl)-5-(5-hydroxy-6-(trifluoromethyl)nicotinoyl)-2,3,4,5,5a,6,8,9-octahydro-7H-1,2,5,7-tetraazabenzo[cd]azulen-7-yl)prop-2-en-1-one] the same measures were 0.005 to 0.015 µM, 0.001 to 0.1 µM, over 3 µM and under 0.0015 µM.
For `C=CC(=O)N1CC(C)Oc2nn(-c3ccc(C(C)C)cc3)c3c2C(C1)N(C(=O)c1ccc(Br)c2[nH]cnc12)CC3` (stereo not shown) [Compound 52, 1-(5-(7-bromo-1H-benzo[d]imidazole-4-carbonyl)-2-(4-isopropylphenyl)-9-methyl-2,3,4,5,5a,6,8,9-octahydro-7H-10-oxa-1,2,5,7-tetraazacycloocta[cd]inden-7-yl)prop-2-en-1-one], the AC50 in test [1] was over 0.055 µM; with HCT116 cells (Homo sapiens, HCT-116, 168 h) it was 0.25 to 0.5 µM; in the test on HT29 cells (Homo sapiens, HT-29, 168 h), over 3 µM; in test [2] it was 0.005 to 0.015 µM.
For `C=CC(=O)N1CCc2nn(-c3ccc(C4CC4)cc3)c3c2C(C1)N(C(=O)c1ccc(OC(F)F)nc1)CC3` (stereo not shown) [Compound 69, 1-(2-(4-cyclopropylphenyl)-5-(6-(difluoromethoxy)nicotinoyl)-2,3,4,5,5a,6,8,9-octahydro-7H-1,2,5,7-tetraazabenzo[cd]azulen-7-yl)prop-2-en-1-one] the same measures were 0.015 to 0.055 µM, 0.1 to 0.25 µM, over 3 µM and 0.005 to 0.015 µM.
In the case of `C=CC(=O)N1CCc2nn(-c3ccc(C4CCC4)cc3C)c3c2C(C1)N(C(=O)c1cnc(C(F)(F)F)cc1N)CC3` (stereo not shown) [Compound 240, 1-(5-(4-amino-6-(trifluoromethyl)nicotinoyl)-2-(4-cyclobutyl-2-methylphenyl)-2,3,4,5,5a,6,8,9-octahydro-7H-1,2,5,7-tetraazabenzo[cd]azulen-7-yl)prop-2-en-1-one], the AC50 in test [1] is 0.0015 to 0.005 µM; with HCT116 cells (Homo sapiens, HCT-116, 168 h) it was 0.001 to 0.1 µM; in the test on HT29 cells (Homo sapiens, HT-29, 168 h), over 3 µM; in test [2] it was under 0.0015 µM.
For `C=CC(=O)N1CCOc2nn(-c3ccc(C4CCC4)cc3O)c3c2C(C1)N(C(=O)c1ccc2c(Br)n[nH]c2c1)CC3` (stereo not shown) [Compound 40, 1-(5-(3-bromo-1H-indazole-6-carbonyl)-2-(4-cyclobutyl-2-hydroxyphenyl)-2,3,4,5,5a,6,8,9-octahydro-7H-10-oxa-1,2,5,7-tetraazacycloocta[cd]inden-7-yl)prop-2-en-1-one] the same measures were 0.015 to 0.055 µM, 0.001 to 0.1 µM, over 3 µM and under 0.0015 µM.
For `C=CC(=O)N1CCc2nn(-c3ccc(C4CCC4)cc3O)c3c2C(C1)N(C(=O)c1cnc(C(F)(F)F)c(SC)c1)CC3` (stereo not shown) [Compound 89, 1-(2-(4-cyclobutyl-2-hydroxyphenyl)-5-(5-(methylthio)-6-(trifluoromethyl)nicotinoyl)-2,3,4,5,5a,6,8,9-octahydro-7H-1,2,5,7-tetraazabenzo[cd]azulen-7-yl)prop-2-en-1-one] the same measures were 0.015 to 0.055 µM, 0.001 to 0.1 µM, over 3 µM and under 0.0015 µM.
Regarding `C=CC(=O)N1CCc2nn(-c3ccc(C4CC4)cc3)c3c2C(C1)N(C(=O)c1cnc(Br)c(F)c1N)CC3` (stereo not shown) [Compound 182, 1-(5-(4-amino-6-bromo-5-fluoronicotinoyl)-2-(4-cyclopropylphenyl)-2,3,4,5,5a,6,8,9-octahydro-7H-1,2,5,7-tetraazabenzo[cd]azulen-7-yl)prop-2-en-1-one], the AC50 in test [1] was 0.0015 to 0.005 µM; in the test on HCT116 cells (Homo sapiens, HCT-116, 168 h) it was 0.001 to 0.1 µM; in the test on HT29 cells (Homo sapiens, HT-29, 168 h), over 3 µM; in test [2], under 0.0015 µM.
For `C=CC(=O)N1CCc2nn(-c3ccc(C4CC4)cc3O)c3c2C(C1)N(C(=O)c1cc(F)c(C(F)(F)F)nc1N)CC3` (stereo not shown) [Compound 200, 1-(5-(2-amino-5-fluoro-6-(trifluoromethyl)nicotinoyl)-2-(4-cyclopropyl-2-hydroxyphenyl)-2,3,4,5,5a,6,8,9-octahydro-7H-1,2,5,7-tetraazabenzo[cd]azulen-7-yl)prop-2-en-1-one] the same measures were 0.015 to 0.055 µM, 0.001 to 0.1 µM, over 3 µM and under 0.0015 µM.
For `C=CC(=O)N1CCOc2nn(-c3ccc(C(C)C)cc3)c3c2C(C1)N(C(=O)c1ccc(Br)c2[nH]cnc12)CC3` (stereo not shown) [Compound 46, 1-(5-(7-bromo-1H-benzo[d]imidazole-4-carbonyl)-2-(4-isopropylphenyl)-2,3,4,5,5a,6,8,9-octahydro-7H-10-oxa-1,2,5,7-tetraazacycloocta[cd]inden-7-yl)prop-2-en-1-one] the same measures were 0.015 to 0.055 µM, 0.001 to 0.1 µM, over 3 µM and 0.0015 to 0.005 µM.
As for `C=CC(=O)N1CCc2nn(-c3ccc(C(C)C)cc3)c3c2C(C1)N(C(=O)c1ccc(Br)c2ncn(CC4CCO4)c12)CC3` (stereo not shown) [Compound 83, 1-(5-(4-bromo-1-((oxetan-2-yl)methyl)-1H-benzo[d]imidazole-7-carbonyl)-2-(4-isopropylphenyl)-2,3,4,5,5a,6,8,9-octahydro-7H-1,2,5,7-tetraazabenzo[cd]azulen-7-yl)prop-2-en-1-one], the AC50 in test [1] is over 0.055 µM; in the test on HCT116 cells it was 0.5 to 1 µM; in the test on HT29 cells it was over 3 µM; in test [2], 0.005 to 0.015 µM.
On to `C=CC(=O)N1CCOc2nn(-c3ccc(C(C)C)cc3O)c3c2C(C1)N(C(=O)c1ccc(Br)c2[nH]cnc12)CC3` (stereo not shown) [Compound 44, 1-(5-(7-bromo-1H-benzo[d]imidazole-4-carbonyl)-2-(2-hydroxy-4-isopropylphenyl)-2,3,4,5,5a,6,8,9-octahydro-7H-10-oxa-1,2,5,7-tetraazacycloocta[cd]inden-7-yl)prop-2-en-1-one], for which the AC50 is 0.005 to 0.015 µM in test [1]; 0.001 to 0.1 µM in the test with HCT116 cells (Homo sapiens, HCT-116, 168 h); over 3 µM in the test on HT29 cells (Homo sapiens, HT-29, 168 h); under 0.0015 µM in test [2].
For `C=CC(=O)N1CCOc2nn(-c3ccc(C(C)C)cc3O)c3c2C(C1)N(C(=O)c1cnc(C(F)(F)F)c(O)c1)CC3` (stereo not shown) [Compound 45, 1-(2-(2-hydroxy-4-isopropylphenyl)-5-(5-hydroxy-6-(trifluoromethyl)nicotinoyl)-2,3,4,5,5a,6,8,9-octahydro-7H-10-oxa-1,2,5,7-tetraazacycloocta[cd]inden-7-yl)prop-2-en-1-one] the same measures were 0.015 to 0.055 µM, over 1 µM, over 3 µM and 0.0015 to 0.005 µM.
As for `C=CC(=O)N1CCc2nn(-c3ccc(C(C)C)cc3)c3c2C(C1)N(C(=O)c1ccc(Br)cc1C(N)=O)CC3` (stereo not shown) [Compound 61, 2-(7-acryloyl-2-(4-isopropylphenyl)-3,4,5,5a,6,7,8,9-octahydro-2H-1,2,5,7-tetraazabenzo[cd]azulene-5-carbonyl)-5-bromobenzamide], the AC50 in test [1] is over 0.055 µM; with HCT116 cells (Homo sapiens, HCT-116, 168 h) it was 0.25 to 0.5 µM; in the test with HT29 cells (Homo sapiens, HT-29, 168 h), over 3 µM; in test [2] it was 0.005 to 0.015 µM.
For `C=CC(=O)N1CCc2nn(-c3ccc(C4CC4)cc3)c3c2C(C1)N(C(=O)c1ccc2c(c1)[nH]c(=O)n2C)CC3` (stereo not shown) [Compound 70, 5-(7-acryloyl-2-(4-cyclopropylphenyl)-3,4,5,5a,6,7,8,9-octahydro-2H-1,2,5,7-tetraazabenzo[cd]azulene-5-carbonyl)-1-methyl-1,3-dihydro-2H-benzo[d]imidazol-2-one] the same measures were over 0.055 µM, over 1 µM, over 3 µM and over 0.055 µM.
For `C=CC(=O)N1CCc2nn(-c3ccc(C4CCC4)cc3O)c3c2C(C1)N(C(=O)c1ccc(OC(F)(F)F)nc1)CC3` (stereo not shown) [Compound 93, 1-(2-(4-cyclobutyl-2-hydroxyphenyl)-5-(6-(trifluoromethoxy)nicotinoyl)-2,3,4,5,5a,6,8,9-octahydro-7H-1,2,5,7-tetraazabenzo[cd]azulen-7-yl)prop-2-en-1-one] the same measures were 0.005 to 0.015 µM, 0.001 to 0.1 µM, over 3 µM and under 0.0015 µM.
